This is an account of results in PMC4646422 (ACS chemical biology, 2015).

Where “and” joins values, the source holds several entries; their conditions need not be identical. Identical values can stand only once. Like-named read-outs stand apart in the source and are kept apart here. Where only a bound is given, the exact number is not on record here.

The format of series [1] is physicochemical. The note with it: for radius: DLS, 25 °C, at twice the compound's CAC; for radius / CAC (critical aggregation concentration): ND = not detected to precipitation limit; for CAC (critical aggregation concentration): dynamic light scattering, 50 mM KPi pH 7.0, 1% DMSO; for particle formation observed by DLS: up to solubility limits; for concentration at which the molecule may aggregate: authors' summary in the discussion.

The target of series [2] is malate dehydrogenase (MDH). Description: Malate dehydrogenase. It counts as biochemical. The conditions noted are these: for inhibition of MDH (in words): counter-screening enzyme. Background: Counterscreens check selectivity or assay interference.
For another series, the system named is CYP3A4. The conditions noted are these: read-out: EC50, CYP3A4; representative literature value; cited from earlier work.
Another series deals with P-glycoprotein. The note with it: read-out: EC50, P-glycoprotein; representative literature value; cited from earlier work.
The target in another series is AmpC β-lactamase (Escherichia coli, UniProt P00811). Description: biochemical. The conditions noted are these: for inhibition of AmpC β-lactamase (in words): counter-screening enzyme; for IC50: IC50 vs AmpC β-lactamase. It counts as biochemical.
In another series the test system is CDK2. The conditions noted are these: read-out: EC50, CDK2; representative literature value; cited from earlier work.
A further series concerns HIV-1 protease. The note with it: read-out: EC50, HIV-1 protease; representative literature value; cited from earlier work.
In a further series the target is Ca^2+-ATPase. The conditions noted are these: read-out: EC50, Ca^2+-ATPase; representative literature value; cited from earlier work.
Series [3] addresses T1, HIV-2 protease (Human immunodeficiency virus type 2 subtype A, UniProt P04584). Kind of series: HIV-2 protease inhibition assay. The conditions noted are these: IC50 vs HIV-2 protease, 50 mM sodium acetate, pH 5.5, 200 mM sodium chloride.
Series [4] deals with T1, HIV-2 protease. The conditions noted are these: read-out: EC50, HIV-2 protease; representative literature value; cited from earlier work.
A further series deals with GL01. The note with it: read-out: EC50, GL01; representative literature value; cited from earlier work.
A further series deals with MMP. The note with it: read-out: EC50, MMP; representative literature value; cited from earlier work.
The subject of a further series is trypsin. The conditions noted are these: read-out: EC50, trypsin; representative literature value; cited from earlier work.
Another series deals with DYRK1A and CLK1. The note with it: read-out: EC50, DYRK1A and CLK1; representative literature value; cited from earlier work.
Series [5] has as its target Trypsin from porcine pancreas (Sus scrofa, UniProt P00761). Description: Trypsin inhibition assay. The note with it: IC50 vs trypsin, 50 mM potassium phosphate. The format is biochemical.
Another series has as its system 11 β HSD1. The note with it: read-out: EC50, 11 β HSD1; representative literature value; cited from earlier work.
For a further series, the system named is AMPK. The conditions noted are these: read-out: EC50, AMPK; representative literature value; cited from earlier work.
For another series, the system named is ERR. The conditions noted are these: read-out: EC50, ERR; representative literature value; cited from earlier work.
A further series concerns CDK. The note with it: read-out: EC50, CDK; representative literature value; cited from earlier work.
A further series relates to MATE1. The note with it: read-out: EC50, MATE1; representative literature value; cited from earlier work.
Another series has as its system OCT2. The note with it: read-out: EC50, OCT2; representative literature value; cited from earlier work.
In the next series the test system is hCNT. The conditions noted are these: read-out: EC50, hCNT; representative literature value; cited from earlier work.
The next series relates to PTP1B. The conditions noted are these: read-out: EC50, PTP1B; representative literature value; cited from earlier work.
The next series deals with ASICs. The note with it: read-out: EC50, ASICs; representative literature value; cited from earlier work.
The test system of another series is Hsp90. The note with it: read-out: EC50, Hsp90; representative literature value; cited from earlier work.
The next series deals with GLUT4. The conditions noted are these: read-out: EC50, GLUT4; representative literature value; cited from earlier work.
The mark [6] stands for this setting: read-out: IC50 vs MDH, no detergent, 50 mM potassium phosphate, pH 7.0, ND = not detected to precipitation limit.
[7] abbreviates: read-out: IC50 vs MDH, with detergent, 50 mM potassium phosphate, pH 7.0 + 0.01% (v/v) Triton X-100, ND = not detected to precipitation limit.
[8] abbreviates: read-out: IC50 vs MDH, with DTT, with 1 mM DTT.
Where [9] appears, read: with detergent, pH 7.0 + 0.01% (v/v) Triton X-100.

Trypsin from porcine pancreas, sequence (P00761 9-231): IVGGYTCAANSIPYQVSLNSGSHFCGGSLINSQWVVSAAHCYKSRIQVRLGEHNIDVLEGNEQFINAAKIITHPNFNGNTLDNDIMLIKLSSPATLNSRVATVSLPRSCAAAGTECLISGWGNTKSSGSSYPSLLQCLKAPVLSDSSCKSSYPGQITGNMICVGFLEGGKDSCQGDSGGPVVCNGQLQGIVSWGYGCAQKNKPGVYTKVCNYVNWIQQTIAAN
T1 sequence (P04584 514-612 limits assumed): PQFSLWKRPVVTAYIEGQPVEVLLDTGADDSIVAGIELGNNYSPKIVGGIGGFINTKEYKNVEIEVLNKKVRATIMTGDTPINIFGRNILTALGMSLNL
AmpC β-lactamase, sequence (P00811 20-377): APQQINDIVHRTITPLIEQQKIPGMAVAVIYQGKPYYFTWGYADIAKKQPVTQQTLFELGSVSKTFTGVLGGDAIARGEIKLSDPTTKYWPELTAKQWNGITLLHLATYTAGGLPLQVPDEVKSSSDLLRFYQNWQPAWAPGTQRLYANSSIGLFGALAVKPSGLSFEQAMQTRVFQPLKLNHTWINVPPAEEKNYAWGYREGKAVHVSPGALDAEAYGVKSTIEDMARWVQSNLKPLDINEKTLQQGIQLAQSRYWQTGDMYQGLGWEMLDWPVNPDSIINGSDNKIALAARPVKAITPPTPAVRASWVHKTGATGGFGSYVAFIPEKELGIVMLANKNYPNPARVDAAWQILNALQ

In series [1], `Oc1ccc2c(c1)OC[C@]1(O)Cc3cc(O)c(O)cc3[C@H]21` [brazilin] gave a radius of 52 ± 10 nm. Further, the “CAC (critical aggregation concentration)” value in series [1] was 57 ± 7 µM. Besides, the IC50 (usually the concentration that inhibits the measured activity by half) in [2] (setting [6]) amounted to 1.6 µM; in series [2] (setting [7]) it was 84 µM.

`C[C@]12CC[C@H](O)C[C@H]1CC[C@@H]1[C@@H]2CC[C@]2(C)[C@@H](c3ccc(=O)oc3)CC[C@]12O` [bufalin] came in with a radius in series [1] of 1317 ± 394 nm. For the same molecule, in [1], the “CAC (critical aggregation concentration)” value amounted to 51 ± 3 µM. Besides, the IC50 was 101 µM in series [2] (setting [6]) and above 200 µM in series [2] (setting [7]). In addition, the EC50 (usually the concentration giving half of the maximal effect) in the series with CYP3A4 is 14.5 µM; in the series with P-glycoprotein, 100 µM.

For `COc1ccc2c(c1OC)CN1CCc3cc4c(cc3[C@@H]1C2)OCO4` [canadine], the “inhibition of AmpC β-lactamase (in words)” value on AmpC β-lactamase is given as “did not inhibit”. In addition, in series [1], the radius amounted to 52 ± 14 nm, the “CAC (critical aggregation concentration)” value was determined as 95 ± 11 µM and the “particle formation observed by DLS” value is “formed particles”. Besides, the “inhibition of MDH (in words)” value in series [2] is listed as “did not inhibit”. Further, in the series on CDK2, the EC50 was above 50 µM.

For `COc1cc(/C=C/C(=O)CC(=O)/C=C/c2ccc(O)c(OC)c2)ccc1O` [curcumin], in series [1], the radius turned out to be 465 ± 30 nm. In series [1], the “CAC (critical aggregation concentration)” value was 17 µM and 17 ± 0.44 µM. In addition, the EC50 is 100 µM in the series with HIV-1 protease, around 3 µM on Ca^2+-ATPase and 250 µM at HIV-2 protease [4]. For the same molecule, the IC50 is 9 µM in [2] (read-out: IC50 vs MDH, no DTT); 9 µM in series [2] (setting [6]); 10 µM in series [2] (setting [8]); above 30 µM in series [2] (setting [7]); 19 µM against HIV-2 protease [3] (no detergent, 1 mM EDTA and 0.5 mM TCEP); above 100 µM on HIV-2 protease [3] (with detergent, 1 mM EDTA and 0.5 mM TCEP + 0.01% (v/v) Triton X-100).

Regarding `Oc1cc(O)c2cc(O)c(-c3cc(O)c(O)c(O)c3)[o+]c2c1` [delphinidin], the “particle formation observed by DLS” value in [1] is given as “no particles were observed”. In addition, the EC50 in the series with GL01 is 1.9 µM. In addition, the IC50 is 27 µM in [2] (setting [6]) and above 100 µM in [2] (setting [7]).

Molecule `COc1cc2c(O)c3c(c(-c4ccc5c(c4)OCO5)c2cc1OC)C(=O)OC3` [diphyllin] had a radius in series [1] of 269 ± 49 nm. Also, in series [1], the “CAC (critical aggregation concentration)” value was 40 ± 4.0 µM. In addition, the IC50 is 49 µM in series [2] (setting [6]) and above 200 µM in series [2] (setting [7]).

Turning to `Cc1cc(O)c2c(c1)C(=O)c1cc(O)cc(O)c1C2=O` [emodin], the EC50 is 12.8 to 20.1 µM with MMP; 50 µM in the series on trypsin; 4.2 to 6.1 µM in the series on DYRK1A and CLK1; 4.2 to 7.2 µM with 11 β HSD1; 0.5 µM with AMPK. Further, the half-maximal inhibitory concentration (IC50) against AmpC β-lactamase (no DTT) was 27 µM; at AmpC β-lactamase (with DTT, with 1 mM DTT) it was 17 µM; in series [5] (no detergent, pH 7.0), 49 µM; in series [5] (setting [9]) it was above 500 µM; in [2] (read-out: IC50 vs MDH, no DTT), 28 µM; in series [2] (setting [6]), 28 µM. Further, the half-maximal inhibitory concentration (IC50) was 18 µM in series [2] (setting [8]) and above 100 µM in series [2] (setting [7]). The radius in series [1] turned out to be 231 ± 61 nm. Also, the “CAC (critical aggregation concentration)” value in series [1] was found to be 28 ± 2 µM.

As for `Oc1ccc([C@H]2COc3cc(O)ccc3C2)cc1` [equol], in series [1], the “concentration at which the molecule may aggregate” value was at least 100 µM and the “particle formation observed by DLS” value was “no particles were observed”. In addition, in the series with ERR, the EC50 is 5.8 µM.

Take `O=c1c(O)c(-c2ccc(O)cc2)oc2cc(O)cc(O)c12` [kaempferol]: the half-inhibitory concentration (IC50) in [5] (no detergent, pH 7.0) is 110 µM; in series [5] (setting [9]) it was above 250 µM; in series [2] (setting [6]) it was 61 µM; in [2] (setting [7]), above 100 µM. In addition, the radius in [1] was found to be 61 ± 20 nm. Also, the “CAC (critical aggregation concentration)” value in series [1] was 81 ± 26 µM. In addition, the EC50 in the series on CDK is 2.5 to 51 µM.

`COc1ccc2c(c1OC)C(=O)O[C@@H]2[C@H]1c2c(cc3c(c2OC)OCO3)CCN1C` [noscapine]: the “inhibition of AmpC β-lactamase (in words)” value at AmpC β-lactamase is on record as “no inhibition”. Also, the values for the EC50 in the series with MATE1 and in the series on OCT2 were 34.5 µM and 2.6 µM, respectively. Besides, the “particle formation observed by DLS” value in [1] was “no particles were observed”. For the same molecule, the “inhibition of MDH (in words)” value in [2] is listed as “no inhibition”.

Take `O=C(CCc1ccc(O)cc1)c1c(O)cc(O)cc1O[C@@H]1O[C@H](CO)[C@@H](O)[C@H](O)[C@H]1O` [phlorizin]: the “inhibition of AmpC β-lactamase (in words)” value at AmpC β-lactamase is given as “no inhibition”. For the same molecule, the “particle formation observed by DLS” value in [1] is recorded as “no particles were observed”. Moreover, the “inhibition of MDH (in words)” value in series [2] is recorded as “no inhibition”. In the series with hCNT, the EC50 is 100 to 200 µM.

In the case of `COc1cc(O)c2c(c1)C(=O)c1cc(C)cc(O)c1C2=O` [physcion], the concentration for a half-maximal effect (EC50) is 26.8 to 45.3 µM with MMP and 20 µM in the series on PTP1B. For the same molecule, the IC50 on AmpC β-lactamase (no DTT) was 7 µM; on AmpC β-lactamase (with DTT, with 1 mM DTT), 11 µM; in [2] (read-out: IC50 vs MDH, no DTT), 11 µM; in series [2] (setting [6]) it was 11 µM; in [2] (setting [8]) it was 8 µM; in [2] (setting [7]), above 20 µM. This molecule also displayed a radius in series [1] of 320 ± 83 nm. For the same molecule, the “CAC (critical aggregation concentration)” value in [1] was 0.32 ± 0.025 µM.

Take `O=c1c(-c2ccc(O)cc2)coc2c([C@@H]3O[C@H](CO)[C@@H](O)[C@H](O)[C@H]3O)c(O)ccc12` [puerarin]: in [1], the radius was 78 ± 25 nm; the “concentration at which the molecule may aggregate” value is at least 100 µM; the “CAC (critical aggregation concentration)” value is 135 µM and 135 ± 40 µM. In series [2] (setting [6]), the half-maximal inhibitory concentration (IC50) is 135 µM. Besides, in series [2] (setting [7]), the IC50 was 156 µM. For the same molecule, the EC50 with ASICs is 38.4 µM.

In series [1], `COc1cc(C2Oc3cc([C@H]4Oc5cc(O)cc(O)c5C(=O)[C@@H]4O)ccc3OC2CO)ccc1O` (stereo partly shown) [silibinin] gave a radius of 53 ± 16 nm. Also, the “CAC (critical aggregation concentration)” value in series [1] amounted to 0.47 ± 0.15 µM. Besides, the EC50 in the series on Hsp90 is 250 µM; in the series on GLUT4, 60 µM. Besides, the half-inhibitory concentration (IC50) in series [2] (setting [6]) is 12 µM; in series [2] (setting [7]) it was above 100 µM.
